{
  "source": "the kinase profiling compilation of Christmann-Franck et al. (2016)",
  "test_in_all_cases": "radiometric filter-binding kinase assay, Kinase HotSpot",
  "details_in_all_cases": "compound 0.5 µM; ATP 10 µM",
  "key": {"ALK (human)": {"molecular_target": "ALK (human) (UniProt Q9UM73)"}, "CAMK1 (human)": {"molecular_target": "CAMK1 (human) (UniProt Q14012)"}, "CDK4 CCND1 (human)": {"molecular_target": "CDK4 CCND1 (human) (UniProt P24385+P11802)"}, "CHUK (human)": {"molecular_target": "CHUK (human) (UniProt O15111)"}, "CLK1 (human)": {"molecular_target": "CLK1 (human) (UniProt P49759)"}, "CLK2 (human)": {"molecular_target": "CLK2 (human) (UniProt P49760)"}, "CLK3 (human)": {"molecular_target": "CLK3 (human) (UniProt P49761)"}, "CSNK1G1 (human)": {"molecular_target": "CSNK1G1 (human) (UniProt Q9HCP0)"}, "DYRK1A (human)": {"molecular_target": "DYRK1A (human) (UniProt Q13627)"}, "DYRK4 (human)": {"molecular_target": "DYRK4 (human) (UniProt Q9NR20)"}, "EPHB2 (human)": {"molecular_target": "EPHB2 (human) (UniProt P29323)"}, "ERBB2 (human)": {"molecular_target": "ERBB2 (human) (UniProt P04626)"}, "ERBB4 (human)": {"molecular_target": "ERBB4 (human) (UniProt Q15303)", "sequence (Q15303 whole entry, looked up)": "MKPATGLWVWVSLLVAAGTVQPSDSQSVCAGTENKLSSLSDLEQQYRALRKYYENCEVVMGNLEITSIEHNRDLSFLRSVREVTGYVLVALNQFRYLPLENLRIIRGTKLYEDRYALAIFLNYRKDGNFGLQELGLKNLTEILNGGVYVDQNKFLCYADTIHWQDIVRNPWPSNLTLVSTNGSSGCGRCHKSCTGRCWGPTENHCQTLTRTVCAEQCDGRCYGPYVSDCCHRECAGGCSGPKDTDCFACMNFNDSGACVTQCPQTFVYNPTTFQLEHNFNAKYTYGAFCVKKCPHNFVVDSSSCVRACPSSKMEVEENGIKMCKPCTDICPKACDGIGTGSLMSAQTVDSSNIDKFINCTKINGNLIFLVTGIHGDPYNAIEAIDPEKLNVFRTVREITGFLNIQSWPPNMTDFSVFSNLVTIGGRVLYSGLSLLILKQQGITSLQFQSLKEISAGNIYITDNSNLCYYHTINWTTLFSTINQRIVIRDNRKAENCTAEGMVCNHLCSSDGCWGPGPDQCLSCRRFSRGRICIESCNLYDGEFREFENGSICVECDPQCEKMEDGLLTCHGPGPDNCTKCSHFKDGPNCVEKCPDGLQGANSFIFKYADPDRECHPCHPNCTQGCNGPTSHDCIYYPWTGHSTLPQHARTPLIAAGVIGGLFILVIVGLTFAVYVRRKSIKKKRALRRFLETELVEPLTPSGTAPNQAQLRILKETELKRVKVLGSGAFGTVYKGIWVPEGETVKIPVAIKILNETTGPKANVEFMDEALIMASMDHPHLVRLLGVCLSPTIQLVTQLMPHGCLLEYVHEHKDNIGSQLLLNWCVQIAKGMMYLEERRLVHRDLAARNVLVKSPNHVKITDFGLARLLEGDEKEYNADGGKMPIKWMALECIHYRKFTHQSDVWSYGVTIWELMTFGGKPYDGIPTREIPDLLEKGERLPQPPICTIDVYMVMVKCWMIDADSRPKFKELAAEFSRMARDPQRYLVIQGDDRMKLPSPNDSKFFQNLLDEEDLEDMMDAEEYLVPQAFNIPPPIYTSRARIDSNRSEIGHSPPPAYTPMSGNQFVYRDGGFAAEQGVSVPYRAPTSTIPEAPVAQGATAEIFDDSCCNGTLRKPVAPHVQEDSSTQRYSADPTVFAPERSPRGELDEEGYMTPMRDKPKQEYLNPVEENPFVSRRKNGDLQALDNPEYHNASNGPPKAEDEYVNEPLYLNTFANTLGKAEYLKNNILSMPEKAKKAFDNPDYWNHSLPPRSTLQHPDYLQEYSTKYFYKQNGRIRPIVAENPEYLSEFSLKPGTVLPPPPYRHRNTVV"}, "HIPK1 (human)": {"molecular_target": "HIPK1 (human) (UniProt Q86Z02)", "sequence (Q86Z02 whole entry, looked up)": "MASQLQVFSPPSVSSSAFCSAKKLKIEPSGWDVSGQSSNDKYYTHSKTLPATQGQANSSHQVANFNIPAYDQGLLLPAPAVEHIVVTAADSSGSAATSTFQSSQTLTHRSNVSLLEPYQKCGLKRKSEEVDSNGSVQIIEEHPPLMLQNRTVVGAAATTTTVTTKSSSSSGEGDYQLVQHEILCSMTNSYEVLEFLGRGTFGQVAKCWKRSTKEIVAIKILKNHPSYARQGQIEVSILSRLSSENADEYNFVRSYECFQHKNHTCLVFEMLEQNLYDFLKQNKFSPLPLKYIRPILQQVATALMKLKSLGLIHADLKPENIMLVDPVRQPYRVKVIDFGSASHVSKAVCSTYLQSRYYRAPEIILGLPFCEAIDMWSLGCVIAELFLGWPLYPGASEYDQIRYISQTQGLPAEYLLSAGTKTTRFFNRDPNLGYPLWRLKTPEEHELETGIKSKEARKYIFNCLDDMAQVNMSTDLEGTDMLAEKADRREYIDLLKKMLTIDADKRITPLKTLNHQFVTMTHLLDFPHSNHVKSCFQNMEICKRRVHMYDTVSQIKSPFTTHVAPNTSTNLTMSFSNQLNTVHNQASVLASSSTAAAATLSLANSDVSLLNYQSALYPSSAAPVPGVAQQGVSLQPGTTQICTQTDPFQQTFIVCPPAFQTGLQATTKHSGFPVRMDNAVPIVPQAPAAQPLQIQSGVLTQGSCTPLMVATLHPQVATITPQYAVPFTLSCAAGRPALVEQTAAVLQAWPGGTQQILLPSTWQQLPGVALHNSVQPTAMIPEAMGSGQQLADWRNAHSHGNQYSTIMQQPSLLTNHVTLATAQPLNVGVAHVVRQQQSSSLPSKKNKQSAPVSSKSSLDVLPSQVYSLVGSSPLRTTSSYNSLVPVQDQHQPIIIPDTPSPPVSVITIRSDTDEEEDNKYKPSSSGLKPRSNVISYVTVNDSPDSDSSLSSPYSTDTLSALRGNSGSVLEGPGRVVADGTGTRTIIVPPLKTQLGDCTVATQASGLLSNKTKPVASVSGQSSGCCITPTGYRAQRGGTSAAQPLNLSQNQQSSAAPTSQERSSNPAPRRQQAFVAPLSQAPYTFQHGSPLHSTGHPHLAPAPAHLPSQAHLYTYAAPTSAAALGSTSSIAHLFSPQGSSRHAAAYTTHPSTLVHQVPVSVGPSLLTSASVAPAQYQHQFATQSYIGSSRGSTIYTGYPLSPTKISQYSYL"}, "IRAK1 (human)": {"molecular_target": "IRAK1 (human) (UniProt P51617)"}, "JAK2 JH1 JH2 (human)": {"molecular_target": "JAK2 JH1 JH2 (human) (UniProt O60674)"}, "JAK3 JH1 JH2 (human)": {"molecular_target": "JAK3 JH1 JH2 (human) (UniProt P52333)"}, "LRRK2 (human)": {"molecular_target": "LRRK2 (human) (UniProt Q5S007)"}, "MAP2K1 (human)": {"molecular_target": "MAP2K1 (human) (UniProt Q02750)"}, "MAP3K11 (human)": {"molecular_target": "MAP3K11 (human) (UniProt Q16584)", "sequence (Q16584 whole entry, looked up)": "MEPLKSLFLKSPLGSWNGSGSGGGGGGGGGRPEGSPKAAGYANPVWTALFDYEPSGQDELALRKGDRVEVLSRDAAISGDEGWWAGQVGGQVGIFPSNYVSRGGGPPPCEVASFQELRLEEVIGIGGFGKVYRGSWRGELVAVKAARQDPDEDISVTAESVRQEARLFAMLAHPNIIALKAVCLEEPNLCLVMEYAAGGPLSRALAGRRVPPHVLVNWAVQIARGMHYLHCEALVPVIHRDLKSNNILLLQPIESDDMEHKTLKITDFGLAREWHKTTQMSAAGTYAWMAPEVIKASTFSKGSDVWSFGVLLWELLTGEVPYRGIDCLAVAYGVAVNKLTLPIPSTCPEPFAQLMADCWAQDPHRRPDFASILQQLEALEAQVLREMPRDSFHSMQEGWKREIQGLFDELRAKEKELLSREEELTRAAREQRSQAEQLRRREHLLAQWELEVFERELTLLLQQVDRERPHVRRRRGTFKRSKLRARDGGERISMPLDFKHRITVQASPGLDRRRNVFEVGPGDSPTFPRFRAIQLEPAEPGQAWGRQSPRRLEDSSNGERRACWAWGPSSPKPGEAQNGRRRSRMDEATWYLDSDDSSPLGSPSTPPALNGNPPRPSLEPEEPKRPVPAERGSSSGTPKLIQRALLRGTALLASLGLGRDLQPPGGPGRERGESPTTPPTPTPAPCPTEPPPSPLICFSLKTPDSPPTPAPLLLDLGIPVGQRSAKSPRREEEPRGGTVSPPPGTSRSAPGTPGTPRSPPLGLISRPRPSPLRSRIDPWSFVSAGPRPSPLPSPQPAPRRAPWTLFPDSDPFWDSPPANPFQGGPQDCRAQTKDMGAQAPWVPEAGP"}, "MAP3K7 TAB1 (human)": {"molecular_target": "MAP3K7 TAB1 (human) (UniProt O43318+Q15750)"}, "MAPK1 (human)": {"molecular_target": "MAPK1 (human) (UniProt P28482)"}, "MARK3 (human)": {"molecular_target": "MARK3 (human) (UniProt P27448)"}, "MKNK2 (human)": {"molecular_target": "MKNK2 (human) (UniProt Q9HBH9)"}, "MLTK (human)": {"molecular_target": "MLTK (human) (UniProt Q9NYL2)"}, "NEK4 (human)": {"molecular_target": "NEK4 (human) (UniProt P51957)"}, "NTRK2 (human)": {"molecular_target": "NTRK2 (human) (UniProt Q16620)"}, "PAK2 (human)": {"molecular_target": "PAK2 (human) (UniProt Q13177)"}, "PAK3 (human)": {"molecular_target": "PAK3 (human) (UniProt O75914)"}, "PDPK1 (human)": {"molecular_target": "PDPK1 (human) (UniProt O15530)", "sequence (O15530 whole entry, looked up)": "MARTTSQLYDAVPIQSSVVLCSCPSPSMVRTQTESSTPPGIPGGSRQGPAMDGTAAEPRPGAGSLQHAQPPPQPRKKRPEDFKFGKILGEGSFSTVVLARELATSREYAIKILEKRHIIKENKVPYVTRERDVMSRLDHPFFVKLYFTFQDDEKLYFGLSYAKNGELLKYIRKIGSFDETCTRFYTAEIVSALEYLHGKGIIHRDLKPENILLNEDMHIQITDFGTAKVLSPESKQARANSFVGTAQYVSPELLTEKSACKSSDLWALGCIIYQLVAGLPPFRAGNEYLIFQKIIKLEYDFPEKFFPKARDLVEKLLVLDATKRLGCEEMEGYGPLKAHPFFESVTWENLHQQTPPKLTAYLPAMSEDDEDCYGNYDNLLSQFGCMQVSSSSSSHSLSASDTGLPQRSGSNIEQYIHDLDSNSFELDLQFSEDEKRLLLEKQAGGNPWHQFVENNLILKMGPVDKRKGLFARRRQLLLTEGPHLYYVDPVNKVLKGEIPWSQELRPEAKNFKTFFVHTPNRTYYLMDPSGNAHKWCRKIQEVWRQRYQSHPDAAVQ"}, "PLK2 (human)": {"molecular_target": "PLK2 (human) (UniProt Q9NYY3)"}, "PRKD2 (human)": {"molecular_target": "PRKD2 (human) (UniProt Q9BZL6)", "sequence (Q9BZL6 whole entry, looked up)": "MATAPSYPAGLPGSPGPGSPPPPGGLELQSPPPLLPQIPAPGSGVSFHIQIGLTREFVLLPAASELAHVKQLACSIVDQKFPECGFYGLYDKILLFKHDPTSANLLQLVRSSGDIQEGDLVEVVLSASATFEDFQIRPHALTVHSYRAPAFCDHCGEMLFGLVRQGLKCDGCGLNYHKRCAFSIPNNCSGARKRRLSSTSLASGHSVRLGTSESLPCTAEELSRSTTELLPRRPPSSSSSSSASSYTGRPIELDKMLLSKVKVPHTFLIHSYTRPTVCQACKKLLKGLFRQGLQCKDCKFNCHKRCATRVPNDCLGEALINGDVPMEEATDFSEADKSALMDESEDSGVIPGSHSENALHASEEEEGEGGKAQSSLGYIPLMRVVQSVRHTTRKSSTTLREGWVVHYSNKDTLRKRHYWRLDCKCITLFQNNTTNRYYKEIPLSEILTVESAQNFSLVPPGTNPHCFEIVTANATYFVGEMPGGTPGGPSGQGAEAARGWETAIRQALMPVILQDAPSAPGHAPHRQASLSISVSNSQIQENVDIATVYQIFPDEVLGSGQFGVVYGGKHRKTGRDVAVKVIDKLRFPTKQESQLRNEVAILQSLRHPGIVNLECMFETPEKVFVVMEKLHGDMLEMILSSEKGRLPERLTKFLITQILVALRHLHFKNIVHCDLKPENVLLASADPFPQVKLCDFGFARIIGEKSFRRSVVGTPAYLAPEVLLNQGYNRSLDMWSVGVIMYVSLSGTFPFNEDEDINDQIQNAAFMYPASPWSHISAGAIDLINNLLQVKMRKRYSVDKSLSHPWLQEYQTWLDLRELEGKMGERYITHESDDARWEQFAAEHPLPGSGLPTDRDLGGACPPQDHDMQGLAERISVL"}, "PRKX (human)": {"molecular_target": "PRKX (human) (UniProt P51817)"}, "PTK6 (human)": {"molecular_target": "PTK6 (human) (UniProt Q13882)"}, "RPS6KA4 KD2 (human)": {"molecular_target": "RPS6KA4 KD2 (human) (UniProt O75676)"}, "SRPK1 (human)": {"molecular_target": "SRPK1 (human) (UniProt Q96SB4)"}, "STK39 (human)": {"molecular_target": "STK39 (human) (UniProt Q9UEW8)"}, "TAOK2 (human)": {"molecular_target": "TAOK2 (human) (UniProt Q9UL54)"}, "TBK1 (human)": {"molecular_target": "TBK1 (human) (UniProt Q9UHD2)"}, "TTK (human)": {"molecular_target": "TTK (human) (UniProt P33981)"}, "TXK (human)": {"molecular_target": "TXK (human) (UniProt P42681)"}, "VRK1 (human)": {"molecular_target": "VRK1 (human) (UniProt Q99986)"}},
  "data": [
    {"smiles": "COc1ccc(COc2ccc(Cc3cnc(N)nc3N)cc2OC)cc1", "values": [
      {"measurement": "residual activity", "setting": "ALK (human)", "result": 97.4, "unit": "%"},
      {"measurement": "residual activity", "setting": "CAMK1 (human)", "result": 103, "unit": "%"},
      {"measurement": "residual activity", "setting": "CDK4 CCND1 (human)", "result": 97.4, "unit": "%"},
      {"measurement": "residual activity", "setting": "CHUK (human)", "result": 94.7, "unit": "%"},
      {"measurement": "residual activity", "setting": "CLK1 (human)", "result": 103, "unit": "%"},
      {"measurement": "residual activity", "setting": "CLK2 (human)", "result": 94.3, "unit": "%"},
      {"measurement": "residual activity", "setting": "CLK3 (human)", "result": 98.3, "unit": "%"},
      {"measurement": "residual activity", "setting": "CSNK1G1 (human)", "result": 92.7, "unit": "%"},
      {"measurement": "residual activity", "setting": "DYRK1A (human)", "result": 88.1, "unit": "%"},
      {"measurement": "residual activity", "setting": "DYRK4 (human)", "result": 101, "unit": "%"},
      {"measurement": "residual activity", "setting": "EPHB2 (human)", "result": 87.4, "unit": "%"},
      {"measurement": "residual activity", "setting": "ERBB2 (human)", "result": 106, "unit": "%"},
      {"measurement": "residual activity", "setting": "ERBB4 (human)", "result": 110, "unit": "%"},
      {"measurement": "residual activity", "setting": "HIPK1 (human)", "result": 110, "unit": "%"},
      {"measurement": "residual activity", "setting": "IRAK1 (human)", "result": 123, "unit": "%"},
      {"measurement": "residual activity", "setting": "JAK2 JH1 JH2 (human)", "result": 89.2, "unit": "%"},
      {"measurement": "residual activity", "setting": "JAK3 JH1 JH2 (human)", "result": 95.9, "unit": "%"},
      {"measurement": "residual activity", "setting": "LRRK2 (human)", "result": 92.6, "unit": "%"},
      {"measurement": "residual activity", "setting": "MAP2K1 (human)", "result": 98.6, "unit": "%"},
      {"measurement": "residual activity", "setting": "MAP3K11 (human)", "result": 101, "unit": "%"},
      {"measurement": "residual activity", "setting": "MAP3K7 TAB1 (human)", "result": 97.9, "unit": "%"},
      {"measurement": "residual activity", "setting": "MAPK1 (human)", "result": 110, "unit": "%"},
      {"measurement": "residual activity", "setting": "MARK3 (human)", "result": 103, "unit": "%"},
      {"measurement": "residual activity", "setting": "MKNK2 (human)", "result": 90.6, "unit": "%"},
      {"measurement": "residual activity", "setting": "MLTK (human)", "result": 97.4, "unit": "%"},
      {"measurement": "residual activity", "setting": "NEK4 (human)", "result": 92.2, "unit": "%"},
      {"measurement": "residual activity", "setting": "NTRK2 (human)", "result": 31.2, "unit": "%"},
      {"measurement": "residual activity", "setting": "PAK2 (human)", "result": 95.3, "unit": "%"},
      {"measurement": "residual activity", "setting": "PAK3 (human)", "result": 102, "unit": "%"},
      {"measurement": "residual activity", "setting": "PDPK1 (human)", "result": 89.4, "unit": "%"},
      {"measurement": "residual activity", "setting": "PLK2 (human)", "result": 116, "unit": "%"},
      {"measurement": "residual activity", "setting": "PRKD2 (human)", "result": 99.4, "unit": "%"},
      {"measurement": "residual activity", "setting": "PRKX (human)", "result": 105, "unit": "%"},
      {"measurement": "residual activity", "setting": "PTK6 (human)", "result": 96.1, "unit": "%"},
      {"measurement": "residual activity", "setting": "RPS6KA4 KD2 (human)", "result": 107, "unit": "%"},
      {"measurement": "residual activity", "setting": "SRPK1 (human)", "result": 90.4, "unit": "%"},
      {"measurement": "residual activity", "setting": "STK39 (human)", "result": 87.6, "unit": "%"},
      {"measurement": "residual activity", "setting": "TAOK2 (human)", "result": 94.7, "unit": "%"},
      {"measurement": "residual activity", "setting": "TBK1 (human)", "result": 103, "unit": "%"},
      {"measurement": "residual activity", "setting": "TTK (human)", "result": 105, "unit": "%"},
      {"measurement": "residual activity", "setting": "TXK (human)", "result": 101, "unit": "%"},
      {"measurement": "residual activity", "setting": "VRK1 (human)", "result": 91.4, "unit": "%"}
    ]}
  ]
}
